# In patent US5773421A, “Antifungal fusacandins” (Abbott Laboratories, priority 1995, dated 1998):
# Where two headings read alike, the source gives them in different places.
# Tests used:
# [1] = MIC by broth dilution assay; type: cell-based; conditions: 144 h, Table 6d, no sorbitol, 2 ×10^5 organisms/mL
# Procedure: Minimal inhibitory concentrations (MICs) were determined by a broth dilution assay described by Frost, D., Brandt, K., Cugier, D., and Goldman, R. in J. Antibiotics 48: 306-310 (1995) which is incorporated herein by reference. The final concentration of cells was 2 ×10^5 organisms/mL.
# (1,3)-β-Glucan Synthase = target: T1, (1,3)-β-Glucan Synthase (Candida albicans, UniProt O13428); test: In vitro inhibition of (1,3)-β-glucan synthase activity, microsomal enzyme preparation; type: biochemical; conditions: C. albicans CCH 442 microsomal enzyme
# T1 construct: microsomal enzyme preparation C. albicans CCH 442; endogenous in cells; host or cells: Candida albicans CCH 442, microsomes
# T1 sequence (O13428 1-1897): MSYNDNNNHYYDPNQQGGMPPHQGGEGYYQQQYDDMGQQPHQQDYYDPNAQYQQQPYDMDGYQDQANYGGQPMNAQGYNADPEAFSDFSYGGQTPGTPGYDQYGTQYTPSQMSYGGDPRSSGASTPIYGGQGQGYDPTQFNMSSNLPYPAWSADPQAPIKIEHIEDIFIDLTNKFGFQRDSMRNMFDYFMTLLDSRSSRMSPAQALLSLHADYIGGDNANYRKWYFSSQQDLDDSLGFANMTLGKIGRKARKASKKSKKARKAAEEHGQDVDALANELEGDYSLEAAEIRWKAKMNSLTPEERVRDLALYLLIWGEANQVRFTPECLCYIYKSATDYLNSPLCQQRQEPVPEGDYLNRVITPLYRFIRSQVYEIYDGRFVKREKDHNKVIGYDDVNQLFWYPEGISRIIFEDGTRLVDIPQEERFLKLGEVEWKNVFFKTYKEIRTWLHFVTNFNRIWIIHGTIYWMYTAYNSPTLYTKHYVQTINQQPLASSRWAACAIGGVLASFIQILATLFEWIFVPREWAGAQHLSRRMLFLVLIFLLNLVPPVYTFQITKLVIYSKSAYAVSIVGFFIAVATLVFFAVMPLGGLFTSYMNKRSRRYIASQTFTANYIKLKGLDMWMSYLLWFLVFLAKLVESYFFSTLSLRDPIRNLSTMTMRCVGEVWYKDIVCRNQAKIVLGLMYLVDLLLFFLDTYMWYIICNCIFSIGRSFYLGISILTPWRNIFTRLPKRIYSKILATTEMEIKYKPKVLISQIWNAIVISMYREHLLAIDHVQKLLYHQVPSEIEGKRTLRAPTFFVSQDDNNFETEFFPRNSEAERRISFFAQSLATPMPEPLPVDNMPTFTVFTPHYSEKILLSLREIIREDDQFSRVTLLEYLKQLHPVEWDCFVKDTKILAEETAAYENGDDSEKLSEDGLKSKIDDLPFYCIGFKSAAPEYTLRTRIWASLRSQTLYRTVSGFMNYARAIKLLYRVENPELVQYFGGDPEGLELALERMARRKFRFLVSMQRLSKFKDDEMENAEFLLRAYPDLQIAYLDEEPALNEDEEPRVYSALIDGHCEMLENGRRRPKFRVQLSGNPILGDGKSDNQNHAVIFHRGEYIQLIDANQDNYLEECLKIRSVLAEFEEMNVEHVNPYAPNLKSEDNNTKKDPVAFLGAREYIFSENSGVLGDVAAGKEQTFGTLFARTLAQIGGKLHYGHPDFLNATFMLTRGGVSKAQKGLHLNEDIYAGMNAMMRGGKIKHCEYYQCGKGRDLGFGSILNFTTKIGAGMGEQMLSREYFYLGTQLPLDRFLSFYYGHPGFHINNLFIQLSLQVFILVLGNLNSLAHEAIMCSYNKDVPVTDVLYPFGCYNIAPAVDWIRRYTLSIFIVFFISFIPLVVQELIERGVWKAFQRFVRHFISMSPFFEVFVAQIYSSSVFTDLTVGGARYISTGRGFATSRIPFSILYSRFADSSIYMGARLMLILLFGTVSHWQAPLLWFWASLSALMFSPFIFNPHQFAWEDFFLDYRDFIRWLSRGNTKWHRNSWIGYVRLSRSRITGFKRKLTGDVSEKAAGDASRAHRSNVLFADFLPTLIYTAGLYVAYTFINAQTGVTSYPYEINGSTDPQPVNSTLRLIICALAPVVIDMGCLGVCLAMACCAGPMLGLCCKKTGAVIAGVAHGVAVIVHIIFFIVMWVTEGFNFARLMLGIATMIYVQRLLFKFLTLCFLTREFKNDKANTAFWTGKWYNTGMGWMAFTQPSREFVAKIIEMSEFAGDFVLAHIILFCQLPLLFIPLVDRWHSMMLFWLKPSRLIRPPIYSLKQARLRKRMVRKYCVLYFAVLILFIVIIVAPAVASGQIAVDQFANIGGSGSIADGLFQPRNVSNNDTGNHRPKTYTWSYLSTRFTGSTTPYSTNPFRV
# Procedure: The assay was conducted in a final volume of 100 μL of 2.0 mM UDP-[^14 C]-Glc (0.625 mCi/mmol), 1 mM EDTA, 8% (v/v) glycerol, 20 μM GTPgS, 0.5% Brij-35(v/v) or 0.8% BSA, 80 mM Tris/HCl, pH 7.75, and microsomal enzyme preparation C. albicans CCH 442 (100 μg of protein). A detailed description of this assay is described by Frost, D., Brandt, K. Capobioanco, and Goldman, R., Microbiology 140: 2239-2246 (1994) which is incorporated herein by reference.
# Candida albicans 579a = test: MIC by agar dilution method; type: cell-based; conditions: Table 6c; II Candida albicans 579a; agar dilution; read-out: MIC II
# Procedure: (§1) Minimal inhibitory concentrations (MICs) were determined by an agar dilution method. The test compounds were serially diluted in MeOH and 0.2 mL portions were mixed with 20 mL of molten, cooled Sabouraud dextrose agar (Difco). Yeast cell inoculum was prepared by growing cultures on Sabouraud dextrose agar for 18 hours at 32° C. and suspending the cells in phosphate buffered saline. Filamentous fungi were grown under the same conditions for 4 days to obtain spores. The inoculum level for all cultures was adjusted to 10^4 cells using a Petroff-Hauser cell counter. The glutarimide antifungal compounds cycloheximide or amphotericin B were used as a control. Inoculated test plates were incubated at 32° C. and examined after 20 hours.
# [2] = tested on: Candida albicans ATCC 10231; test: MIC by agar dilution method; type: cell-based; conditions: ATCC10231; Table 6c; I Candida albicans ATCC 10231; agar dilution; read-out: MIC I
# Procedure: as §1
# [3] = tested on: Candida albicans ATCC 38247; test: MIC by agar dilution method; type: cell-based; conditions: ATCC38247; Table 6c; IV Candida albicans ATCC 38247; agar dilution; read-out: MIC IV
# Procedure: as §1
# [4] = tested on: Candida albicans ATCC 62376; test: MIC by agar dilution method; type: cell-based; conditions: ATCC62376; Table 6c; V Candida albicans ATCC 62376; agar dilution; read-out: MIC V
# Procedure: as §1
# Candida albicans CCH 442 = test: MIC by agar dilution method; type: cell-based; conditions: CCH442; Table 6c, 3rd value column (head printed II); III Candida albicans CCH 442; agar dilution; read-out: MIC II
# Procedure: as §1
SMILES,MIC [1],"IC50 ((1,3)-β-Glucan Synthase; 0.5% Brij-35, read-out: IC50 With Brij-35 (converted))","IC50 ((1,3)-β-Glucan Synthase; 0.8% BSA, read-out: IC50 With BSA (converted))",MIC (Candida albicans 579a),MIC [2],MIC [3],MIC [4],MIC (Candida albicans CCH 442)
"CC/C=C/C/C=C\C=C\C(=O)OC[C@H]1O[C@@H](O[C@H]2[C@H](OC(=O)/C=C/C=C/CC(O)/C=C/C=C/CCCCC)[C@@H](O)[C@H](c3c(O)cc(O)cc3CO)O[C@@H]2CO)[C@H](O[C@@H]2O[C@H](CO)[C@H](O)[C@H](O)[C@H]2O)[C@@H](O)[C@H]1O (stereo partly shown) [Example 9, fusacandin C]",1.95 µg/mL,35 µM,194 µM,,,,,
CCCCC/C=C/C=C/[C@@H](O)C/C=C/C=C/C(=O)O[C@@H]1[C@@H](O)[C@H](c2c(O)cc(O)cc2CO)O[C@H](CO)[C@H]1O[C@@H]1O[C@H](COC(=O)c2ccc(-c3ccc4ccccc4c3)cc2)[C@H](O)[C@H](O)[C@H]1O[C@@H]1O[C@H](CO)[C@H](O)[C@H](O)[C@H]1O [Example 29],,,,0.78 µg/mL,1.56 µg/mL,1.56 µg/mL,1.56 µg/mL,1.56 µg/mL
CCCCC/C=C/C=C/[C@@H](O)C/C=C/C=C/C(=O)O[C@@H]1[C@@H](O)[C@H](c2c(O)cc(O)cc2CO)O[C@H](CO)[C@H]1O[C@@H]1O[C@H](COC(=O)c2ccc(-c3ccccc3)cc2)[C@H](O)[C@H](O)[C@H]1O[C@@H]1O[C@H](CO)[C@H](O)[C@H](O)[C@H]1O [Example 30],,,,0.78 µg/mL,0.78 µg/mL,1.56 µg/mL,0.78 µg/mL,0.78 µg/mL
CCCCC/C=C/C=C/[C@@H](O)C/C=C/C=C/C(=O)O[C@@H]1[C@@H](O)[C@H](c2c(O)cc(O)cc2CO)O[C@H](CO)[C@H]1O[C@@H]1O[C@H](COC(=O)c2ccc(Oc3ccccc3)cc2)[C@H](O)[C@H](O)[C@H]1O[C@@H]1O[C@H](CO)[C@H](O)[C@H](O)[C@H]1O [Example 31],,,,1.56 µg/mL,3.12 µg/mL,3.12 µg/mL,3.12 µg/mL,3.12 µg/mL
CCCCC/C=C/C=C/[C@@H](O)C/C=C/C=C/C(=O)O[C@@H]1[C@@H](O)[C@H](c2c(O)cc(O)cc2CO)O[C@H](CO)[C@H]1O[C@@H]1O[C@H](COC(=O)c2ccc(-c3ccc(OC)cc3)cc2)[C@H](O)[C@H](O)[C@H]1O[C@@H]1O[C@H](CO)[C@H](O)[C@H](O)[C@H]1O [Example 32],,,,1.56 µg/mL,0.78 µg/mL,3.12 µg/mL,0.78 µg/mL,0.78 µg/mL
CCCCC/C=C/C=C/[C@@H](O)C/C=C/C=C/C(=O)O[C@@H]1[C@@H](O)[C@H](c2c(O)cc(O)cc2CO)O[C@H](CO)[C@H]1O[C@@H]1O[C@H](COC(=O)c2ccc(-c3ccc(-c4ccccc4)cc3)cc2)[C@H](O)[C@H](O)[C@H]1O[C@@H]1O[C@H](CO)[C@H](O)[C@H](O)[C@H]1O [Example 33],,,,0.78 µg/mL,1.56 µg/mL,3.12 µg/mL,0.78 µg/mL,0.78 µg/mL
CCCCC/C=C/C=C/[C@@H](O)C/C=C/C=C/C(=O)O[C@@H]1[C@@H](O)[C@H](c2c(O)cc(O)cc2CO)O[C@H](CO)[C@H]1O[C@@H]1O[C@H](COC(=O)c2cccc(-c3ccc(-c4ccccc4)cc3)c2)[C@H](O)[C@H](O)[C@H]1O[C@@H]1O[C@H](CO)[C@H](O)[C@H](O)[C@H]1O [Example 34],,,,3.12 µg/mL,6.25 µg/mL,6.25 µg/mL,3.12 µg/mL,6.25 µg/mL
CCCCC/C=C/C=C/[C@@H](O)C/C=C/C=C/C(=O)O[C@@H]1[C@@H](O)[C@H](c2c(O)cc(O)cc2CO)O[C@H](CO)[C@H]1O[C@@H]1O[C@H](COC(=O)c2ccc(-c3ccc4c(c3)OCO4)cc2)[C@H](O)[C@H](O)[C@H]1O[C@@H]1O[C@H](CO)[C@H](O)[C@H](O)[C@H]1O [Example 36],,,,0.78 µg/mL,1.56 µg/mL,1.56 µg/mL,1.56 µg/mL,1.56 µg/mL
CCCCC/C=C/C=C/[C@@H](O)C/C=C/C=C/C(=O)O[C@@H]1[C@@H](O)[C@H](c2c(O)cc(O)cc2CO)O[C@H](CO)[C@H]1O[C@@H]1O[C@H](COC(=O)c2ccc(-c3ccc(OCc4ccccc4)cc3)cc2)[C@H](O)[C@H](O)[C@H]1O[C@@H]1O[C@H](CO)[C@H](O)[C@H](O)[C@H]1O [Example 37],,,,1.56 µg/mL,1.56 µg/mL,3.12 µg/mL,1.56 µg/mL,3.12 µg/mL
CCCCC/C=C/C=C/[C@@H](O)C/C=C/C=C/C(=O)O[C@@H]1[C@@H](O)[C@H](c2c(O)cc(O)cc2CO)O[C@H](CO)[C@H]1O[C@@H]1O[C@H](COC(=O)c2ccc(-c3ccc(OCCCCCCCC)cc3)cc2)[C@H](O)[C@H](O)[C@H]1O[C@@H]1O[C@H](CO)[C@H](O)[C@H](O)[C@H]1O [Example 38],,,,25 µg/mL,25 µg/mL,50 µg/mL,12.5 µg/mL,25 µg/mL
CCCCC/C=C/C=C/[C@@H](O)C/C=C/C=C/C(=O)O[C@@H]1[C@@H](O)[C@H](c2c(O)cc(O)cc2CO)O[C@H](CO)[C@H]1O[C@@H]1O[C@H](COC(=O)c2cccc(-c3ccc(OC)cc3)c2)[C@H](O)[C@H](O)[C@H]1O[C@@H]1O[C@H](CO)[C@H](O)[C@H](O)[C@H]1O [Example 39],,,,0.78 µg/mL,1.56 µg/mL,1.56 µg/mL,3.12 µg/mL,1.56 µg/mL
CCCCC/C=C/C=C/[C@@H](O)C/C=C/C=C/C(=O)O[C@@H]1[C@@H](O)[C@H](c2c(O)cc(O)cc2CO)O[C@H](CO)[C@H]1O[C@@H]1O[C@H](COC(=O)c2ccc(-c3ccccc3OC)cc2)[C@H](O)[C@H](O)[C@H]1O[C@@H]1O[C@H](CO)[C@H](O)[C@H](O)[C@H]1O [Example 40],,,,1.56 µg/mL,6.25 µg/mL,6.25 µg/mL,1.56 µg/mL,6.25 µg/mL
CCCCC/C=C/C=C/[C@@H](O)C/C=C/C=C/C(=O)O[C@@H]1[C@@H](O)[C@H](c2c(O)cc(O)cc2CO)O[C@H](CO)[C@H]1O[C@@H]1O[C@H](COC(=O)c2ccc(-c3ccc(O)cc3)cc2)[C@H](O)[C@H](O)[C@H]1O[C@@H]1O[C@H](CO)[C@H](O)[C@H](O)[C@H]1O [Example 41],,,,6.25 µg/mL,12.5 µg/mL,6.25 µg/mL,12.5 µg/mL,6.25 µg/mL
CCCCC/C=C/C=C/[C@@H](O)C/C=C/C=C/C(=O)O[C@@H]1[C@@H](O)[C@H](c2c(O)cc(O)cc2CO)O[C@H](CO)[C@H]1O[C@@H]1O[C@H](COC(=O)c2ccc(-c3ccc(OCCC)cc3)cc2)[C@H](O)[C@H](O)[C@H]1O[C@@H]1O[C@H](CO)[C@H](O)[C@H](O)[C@H]1O [Example 42],,,,0.78 µg/mL,0.78 µg/mL,0.78 µg/mL,0.78 µg/mL,0.78 µg/mL
CCCCC/C=C/C=C/[C@@H](O)C/C=C/C=C/C(=O)O[C@@H]1[C@@H](O)[C@H](c2c(O)cc(O)cc2CO)O[C@H](CO)[C@H]1O[C@@H]1O[C@H](COC(=O)c2ccc(-c3ccc(OC(C)C)cc3)cc2)[C@H](O)[C@H](O)[C@H]1O[C@@H]1O[C@H](CO)[C@H](O)[C@H](O)[C@H]1O [Example 43],,,,0.78 µg/mL,1.56 µg/mL,0.78 µg/mL,0.78 µg/mL,0.78 µg/mL
